According to the NIST ThermoML archive (doi:10.1021/acs.jced.6b00790):

Experiment: mean ionic activity coefficient (dimensionless); mn = molality of the nth substance listed, in mol/kg
Conditions: 298.15 K, 100 kPa, Liquid, potentiometry

O=[N+]([O-])[O-].[Na+] [sodium nitrate] + O
Conditions | mean ionic activity coefficient
m1 = 0.01 | 0.893
m1 = 0.05 | 0.811
m1 = 0.1 | 0.766
m1 = 0.2001 | 0.697
m1 = 0.2999 | 0.663
m1 = 0.4 | 0.638
m1 = 0.5001 | 0.616
m1 = 0.5999 | 0.576
m1 = 0.7001 | 0.565
m1 = 0.7998 | 0.545
m1 = 0.9 | 0.518
m1 = 0.9999 | 0.502
